The term melting point denotes the temperature of the solid-liquid transition.

With `O=C(O)CCNC(=O)C1CCCC1`, the melting point is 128 to 130 °C.
Consider `Cc1ccc(O)c(C(=O)NO)c1`, for which the melting point was in the range of 179 to 181 °C.
In the case of `CC(C)Oc1ccc(C(N)=S)cc1`, the melting point lay in the range of 152 to 154 °C.
The value for `Cc1sc(C(=O)O)cc1-c1ccc(F)cc1` was 156 to 158 °C; that for `Clc1cnc(Cl)nc1` was 55 to 57 °C.
The compound `Cc1ccc(C)c(C(=O)CCl)c1` returned a melting point of 28 to 30 °C.
With `NC(=O)CC1CCCCC1`, the melting point fell in the range of 165 to 167 °C.
Take `Cc1ccc(N)cc1OCC1CCOCC1`: the melting point was in the range of 114 to 116 °C.
The compound `O=C(O)C1(c2ccc(O)cc2)CCOCC1` had a melting point of 170 to 172 °C.
As for `COc1ccc(C(=O)O)cc1S(N)(=O)=O`, the melting point was in the range of 283 to 285 °C.
Turning to `Cc1c(Br)cc(S(=O)(=O)Cl)cc1C(=O)O`, the melting point lay within 167 to 169 °C.
With `CCNC(=O)c1cccc(NC(=O)CCl)c1`, the melting point was 173 to 175 °C.
Under `NC(=O)c1nc(Cl)ccc1N` stands 164 to 166 °C; under `Cc1cc(N)ccc1S(N)(=O)=O`, 169 to 171 °C; under `COc1ccc(-c2nc(CC(=O)O)cs2)cc1OC`, 162 to 164 °C.
As for `CN(C1CCCCC1)S(=O)(=O)c1cccc(N)c1`, the melting point is 109 to 111 °C.
Under `COc1ccc(Sc2ccc(N)cc2Cl)cc1` stands 104 to 106 °C; under `N#Cc1c(SCC(=O)O)nc2c(c1-c1ccco1)CCCC2`, 209 to 211 °C.
The value for `Oc1cccc(Oc2ccncc2)c1` was 119 to 121 °C.
Regarding `COc1ccc(C(=O)NCC(=O)O)cc1`, the melting point is 165 to 167 °C.
For `CNc1nc(C(=O)O)cs1`, the melting point was in the range of 204 to 206 °C.
Take `NC(=NO)c1ccc(O)cc1`: the melting point was in the range of 152 to 156 °C.
`OC(c1ccccc1)c1cccnc1` (centres undefined): the melting point lay within 59 to 61 °C.
The compound `O=C(c1ccccc1)c1ccc(OC(F)F)cc1` registered a melting point of 156 to 158 °C.
Compound `Cc1ccnc(-c2cccc(N)c2)n1` came in with a melting point of 123 to 125 °C.
`N#CCC(=O)NC1CCCCC1` showed a melting point of 132 to 134 °C.
In turn, `Fc1ccc(NCc2ccccn2)c(F)c1` had a melting point of 52 to 54 °C.
The value for `CCc1cccc2c(C3CCNCC3)c[nH]c12` was 183 to 185 °C; that for `O=S(=O)(Cl)Cc1c(Cl)cccc1Cl` was 70 to 72 °C.
`NC(=S)c1ccc(N)cc1` showed a melting point of 189 to 191 °C.
The compound `COc1cc(NC(=O)Cc2cccs2)c(C(=O)O)cc1OC` yielded a melting point of 195 to 197 °C.
Under `CC(N)(C#N)Cn1cc(Br)cn1` (centres undefined) stands 60 to 62 °C.
With `Cc1n[nH]c(N)c1I`, the melting point was in the range of 102 to 104 °C.
The value for `NS(=O)(=O)c1cncc(Br)c1` was 199 to 201 °C; that for `O=C(O)C1CSCN1C(=O)C1CCCC1` (centres undefined) was 114 to 116 °C; that for `O=C(O)c1nn(-c2ccccc2)cc1O` was 154 to 156 °C.
The value for `CC(C)C(=O)Nc1ccc(CNC(=O)n2ccnc2)cc1` was 203 to 205 °C.
Compound `N#Cc1ccc(OCCO)cc1` registered a melting point of 85 to 87 °C.
In the case of `COCCOc1cccc(CC(=O)O)c1`, the melting point lay within 47 to 49 °C.
The value for `COCC(N)=O` was 86 to 88 °C.
Under `Cc1ccc(NC(=O)CO)c(Cl)c1` stands 90 to 92 °C; under `CC(Sc1nnnn1C1CC1)C(=O)O` (centres undefined), 116 to 118 °C.
`O=C(O)CNS(=O)(=O)c1c(F)cc(F)cc1Br` returned a melting point of 136 to 138 °C.
Under `OCc1cc(C23CC4CC(CC(C4)C2)C3)n[nH]1` stands 159 to 161 °C; under `O=C(O)CCNS(=O)(=O)c1ccc2ccccc2c1`, 170 to 180 °C.
The value for `COc1ccc(C(C)=O)cc1-c1ccccc1` was 91 to 93 °C.
In the case of `COc1cc(C=O)ccc1OCc1ccc(Cl)cc1Cl`, the melting point lay in the range of 114 to 116 °C.
In the case of `CC(Cl)C(=O)NCc1ccccc1F` (centres undefined), the melting point fell in the range of 66 to 68 °C.
On to `CCOc1ccc(-n2ncc(C(=O)O)c2C)nn1`, for which the melting point lay in the range of 227 to 229 °C.
For `Cc1cc(C)c2c(C#N)c[nH]c2n1`, the melting point is 316 to 318 °C.
The compound `Cc1ccc(O)c(S(=O)(=O)N2CCNCC2)c1` had a melting point of 187 to 189 °C.
`NC(Cc1c[nH]c2cc(F)ccc12)C(=O)O` (centres undefined): the melting point is 283 to 285 °C.
For `Nc1ccc(OCC2CCOCC2)cc1`, the melting point lay within 108 to 110 °C.
As for `O=C(O)C(=Cc1cccnc1)NC(=O)c1ccccc1`, the melting point was 189 to 191 °C.
Turning to `FC(F)(F)c1ccnc(N2CCNCC2)n1`, the melting point was in the range of 49 to 51 °C.
For `CC(C)(C(=O)O)c1ccc(Br)cc1`, the melting point was 123 to 125 °C.
Regarding `CN(C)C(=O)c1ccc(Cl)c(S(=O)(=O)Cl)c1`, the melting point lay in the range of 106 to 108 °C.
Take `O=C(Cc1nc2ccccc2[nH]1)C(F)(F)F`: the melting point lay within 249 to 251 °C.
The value for `CC(C)Oc1ccc(S(=O)(=O)Cl)c2ccccc12` was 93 to 95 °C.
Turning to `Cn1c(Cl)nc2c1c(=O)[nH]c(=O)n2C`, the melting point lay within 299 to 301 °C.
Under `OCC#Cc1ccc(Oc2ccccc2)cc1` stands 42 to 44 °C.
As to `O=C(O)c1ccc2c(c1)-c1ccccc1C2`, the melting point lay within 264 to 266 °C.
As to `CS(=O)(=O)c1c(N)cccc1Cl`, the melting point was 97 to 99 °C.
`CC(Cl)C(=O)NCc1ccccc1` (centres undefined): the melting point lay in the range of 75 to 77 °C.
`Cc1nc(N)nc2c1CCCC2` registered a melting point of 181 to 185 °C.
In the case of `NC(=O)c1ccc(C=O)cc1`, the melting point is 100 to 102 °C.
Regarding `Cn1cc(/C=C/C(=O)O)c(=O)n(C)c1=O`, the melting point was in the range of 272 to 274 °C.
Compound `Nc1ccccc1N1CCN(CCc2ccncc2)CC1` displayed a melting point of 119 to 121 °C.
The compound `O=C(O)CC1NC(=O)N(c2ccc(F)cc2)C1=O` (centres undefined) gave a melting point of 224 to 226 °C.
Under `CCCc1ccc(N2CC(C(=O)O)CC2=O)cc1` (centres undefined) stands 136 to 138 °C; under `CC(=O)c1cnn(C)c1C`, 47 to 49 °C; under `O=C(CCl)c1c[nH]c2ccccc12`, 183 to 185 °C.
The value for `O=C(c1cccc(Cl)c1)N1CCNCC1` was 96 to 98 °C.
As for `CC(C)(C)Sc1ccc(C(N)=S)nc1`, the melting point lay in the range of 129 to 131 °C.
Regarding `OCc1ccc(O)c(Cl)c1`, the melting point lay in the range of 85 to 87 °C.
Under `CC(C)(C)c1ccc(C2(C(=O)O)CC2)cc1` stands 201 to 203 °C.
The value for `O=C(O)CCCc1nnc(-c2ccccc2I)o1` was 69 to 71 °C.
Consider `OCc1cn(-c2ccccc2Cl)nn1`, for which the melting point is 87 to 89 °C.
As for `NS(=O)(=O)C1CN(C(=O)OCc2ccccc2)C1`, the melting point lay in the range of 103 to 105 °C.
`O=Cc1cc(Cl)c2ccccc2c1O`: the melting point was in the range of 94 to 96 °C.
Under `Nc1nnc(-c2cccc3ccccc23)o1` stands 184 to 186 °C; under `CS(=O)(=O)C1(C(=O)O)CCCC1`, 117 to 119 °C.
With `N#Cc1ccc(C2OCCO2)cc1`, the melting point is 45 to 47 °C.
For the compound `O=C(c1nc2ccccc2s1)C(F)(F)F`, the melting point fell in the range of 83 to 85 °C.
`Cc1cccc2c(CC#N)c[nH]c12` yielded a melting point of 109 to 111 °C.
The value for `Cc1c(S(=O)(=O)Cl)sc2cc(Cl)ccc12` was 83 to 85 °C; that for `COc1ccc(C)cc1CC(=O)O` was 131 to 133 °C.
`CCCC(C(=O)O)c1ccccc1` (centres undefined) displayed a melting point of 63 to 67 °C.
`Cn1cc2c(cc1=O)CCN2`: the melting point lay within 204 to 206 °C.
The value for `O=C(CC1SC(N2CCCCC2)=NC1=O)Nc1cccc(C(=O)O)c1` (centres undefined) was 188 to 190 °C; that for `O=C(O)C1CC1C1CC1` (centres undefined) was 29 to 31 °C; that for `CN(C)c1ccc(C=C(C#N)C(=O)O)cc1` was 224 to 226 °C.
`CNc1ccc(C)nn1`: the melting point is 162 to 164 °C.
The compound `COc1ccc(OC(C)C(=O)O)cc1` (centres undefined) showed a melting point of 91 to 93 °C.
`CCOC(=O)Cc1nnc(N)s1`: the melting point lay within 156 to 158 °C.
Compound `O=C(O)c1cccc(S(=O)(=O)N2CCCC2)c1` displayed a melting point of 157 to 159 °C.
The value for `O=C(Nc1cccc(O)c1)C1CC1` was 184 to 186 °C; that for `CC(=O)NC1(c2noc(CCC(=O)O)n2)CCCCCC1` was 149 to 151 °C; that for `O=C(O)c1cc(F)cnc1Cl` was 143 to 144 °C.
The compound `CN(CC(=O)O)S(C)(=O)=O` came in with a melting point of 54 to 56 °C.
As to `Sc1nnnn1CCc1ccccn1`, the melting point was in the range of 193 to 195 °C.
`CC(C)C1OC(N)=NC1=O` (centres undefined) yielded a melting point of 219 to 221 °C.
The value for `Cc1cccc(NC(=O)N2CCNCC2)c1` was 109 to 111 °C; that for `O=Cc1cccc(OCCC(=O)O)c1` was 98 to 100 °C.
As for `CS(=O)(=O)Cc1nc(Cl)c(Br)c(Cl)n1`, the melting point fell in the range of 174 to 176 °C.
Regarding `Cn1nc(CCl)[nH]c1=O`, the melting point was in the range of 139 to 141 °C.
In turn, `O=C(O)CNC(=O)NC1CC1` showed a melting point of 179 to 181 °C.
In the case of `Nc1cnn(-c2cnc3ccccc3n2)c1`, the melting point is 169 to 171 °C.
The compound `O=C(O)c1cc(-c2cccc(Cl)c2)no1` came in with a melting point of 182 to 184 °C.
In the case of `Cc1cccc(-n2c(S)nnc2-c2ccccc2)c1`, the melting point fell in the range of 133 to 135 °C.
Compound `O=C(O)c1ccc(Cl)c2cccnc12` registered a melting point of 199 to 201 °C.
The value for `Cc1ccc(S(=O)(=O)NC(C)(C)C)cc1C(=O)O` was 180 to 182 °C.
In the case of `CC(C)c1ccc(-c2noc(CCl)n2)cc1`, the melting point lay in the range of 50 to 52 °C.
Take `CN(C)C(=O)N1CCC(C(=O)O)CC1`: the melting point was in the range of 146 to 148 °C.
The compound `CCOc1nnc(-c2ccccc2)n1-c1ccccc1` showed a melting point of 154 to 156 °C.
`Cc1ncc(C(=O)O)c(C(C)C)n1` yielded a melting point of 168 to 170 °C.
Take `Cc1cc(Cl)cc(C)c1C=O`: the melting point was in the range of 39 to 41 °C.
`O=C(CBr)c1sccc1Br` displayed a melting point of 60 to 62 °C.
`CCCCC(NC(=O)NCC)C(=O)O` (centres undefined) registered a melting point of 96 to 98 °C.
The compound `OCc1ccc(CCl)cc1` showed a melting point of 55 to 57 °C.
Under `O=C(O)c1ccc(S(=O)(=O)Nc2ccccc2)cc1` stands 225 to 228 °C.
`O=S(=O)(Cl)c1ccc(Cl)c2ncccc12` registered a melting point of 111 to 113 °C.
Turning to `CC(C)(C)c1ccc(C=CC(=O)O)cc1`, the melting point fell in the range of 206 to 208 °C.
Compound `Cc1nn(C)c2ncc(C#N)cc12` returned a melting point of 176 to 178 °C.

Values taken from a melting point compilation (Tetko et al.).
